We go through four compounds from patent publication US20230104503A1, “SMALL MOLECULE COMPOUNDS” (THE REGENTS OF THE UNIVERSITY OF CALIFORNIA, priority 2021, published 2023).

For series [1] the following is noted: humans; cited from earlier work.
For a further series, the system named is naïve CD4+ mouse T cells. The series can be described thus: FACS of stimulated naïve CD4+ mouse T-cells for CD4+CD25+FOXP3+. The conditions noted are these: 1 uM.
A short description of series [2]: Stability during semi-preparative HPLC. In kind it is physicochemical. The conditions noted are these: 65% acetonitrile with 35% water, 50° C.
Experimental: The crude was then dissolved in acetonitrile, and the resulting solution was subjected to semi-preparation using an Agilent Zorbax column (SB-C18, 5 μm, 9.4×250 mm, Agilent Technologies Inc., CA) heated to 50° C. by isocratic elution of 65% acetonitrile with 35% water at a flow rate of 3.5 mL/min. The absorbance at 278 nm wavelength was monitored.
For the next series, the system named is conventional T cells. The series can be described thus: Treg assays for RAP35: culture of conventional T cells. In kind it is cell-based.
Another series deals with Treg cells. The series can be described thus: Treg assays for RAP35: Treg cells with expander beads. In kind it is cell-based. The conditions noted are these: 100 nM.
The subject of a further series is mTOR. Nature of the series: Phospho-flow (FACS) of phospho-p70S6K / p-S6 in activated mouse T-cells. In kind it is cell-based. As to the method: Whole splenocyte from OT1 B6 mice was extracted. […] Cells were activated with compounds for 30 mins, 1 hour, 2 hours, and overnight. For each time point, p-S6, a downstream of mTORC1 pathway, was gated on low and high based on the DMSO and no stimulation control.

The test system of series [3] is CD8 cells isolated from p14 transgenic mice. The series can be described thus: CD8 CTV-labelled proliferation assay. In kind it is cell-based, mouse. The conditions noted are these: activated for 72 hours; relative to RAP35 and rapamycin. Here is the method: The five analogs and rapamycin were assayed for their effect on proliferation and correlation to p70S6K inhibitory activity. […] The proliferation was measured by FACS. The five analogs were tested at varying concentrations (10 nM, 100 nM, and 100 μM), activated for 72 hours with rapamycin and DMSO treated controls.
CD8 cells were isolated from p14 transgenic mice, then labelled with CTV. The labelled cells then were activated with plate-bound anti-CD3 (5 μg/mL) and soluble anti-CD28 (2 μg/mL), along with rapamycin, rapamycin analog, or DMSO. After activation of 48 hours and 72 hours, the cells were collected to assay the CVT labelling signal using flow cytometry. All rapamycin analogs decrease proliferation in CD8 cells, with varying potency (FIG. 12).

In a further series the test system is naïve CD4+ mouse T-cells. Nature of the series: FACS for expansion of CD62L+ memory T-cells. In kind it is cell-based. As to the method:
RAP23 was further evaluated by treating naïve CD4+ T-cells at multiple concentrations (1 nM to 1 uM) for expansion of CD62L+ memory T-cells. […] These 5 compounds were identified to have reduced immunosuppression (with improved safety) with maximum and durable expansion of memory T-cells.

With `CO[C@H]1C[C@@H]2CC[C@@H](C)[C@@](O)(O2)C(=O)C(=O)N2CCCC[C@H]2C(=O)O[C@H]([C@H](C)C[C@@H]2CC[C@@H](O)[C@H](OC)C2)CC(=O)[C@H](C)/C=C(\C)[C@@H](O)[C@@H](OC)C(=O)[C@H](C)C[C@H](C)/C=C/C=C/C=C/1C` [rapamycin, reference compound], in series [1], the terminal half-life is 24 to 48 h. Moreover, the “FOXP3+ count” value in the series with naïve CD4+ mouse T cells turned out to be 53.3.
Turning to `CO[C@H]1C[C@@H]2CC[C@@H](C)[C@@](O)(O2)C(=O)C(=O)N2CCCC[C@H]2C(=O)O[C@H](CC[C@@H]2CC[C@@H](O)[C@H](OC)C2)CC(=O)[C@H](C)/C=C(\C)[C@@H](O)CC(=O)[C@H](C)C[C@H](C)/C=C/C=C/C=C/1C` [RAP35/27A, (3R,6R,7E,9S,12R,14S,15E,17E,19E,21S,23S,26R,27R,34aS)-9,27-dihydroxy-3-(2-((1S,3R,4R)-4-hydroxy-3-methoxycyclohexyl)ethyl)-21-methoxy-6,8,12,14,20,26-hexamethyl-9,10,12,13,14,21,22,23,24,25,26,27,32,33,34,34a-hexadecahydro-3H-23,27-epoxypyrido[2,1-c][1]oxa[4]azacyclohentriacontine-1,5,11,28,29(4H,6H,31H)-pentaone], the “stability in the process of semi-preparation” value in series [2] was “tended to be unstable”.
For the compound `CO[C@H]1C[C@@H]2CC[C@@H](C)[C@@](O)(O2)C(=O)C(=O)N2CCCC[C@H]2C(=O)O[C@H](CC[C@@H]2CC[C@@H](O)[C@H](OC)C2)CC(=O)[C@H](C)/C=C(\C)[C@@H](O)[C@@H](OC)C(=O)[C@H](C)C[C@H](C)/C=C/C=C/C=C/1C` [RAP35, (3R,6R,7E,9R,10R,12R,14S,15E,17E,19E,21S,23S,26R,27R,34aS)-9,27-dihydroxy-3-(2-((1S,3R,4R)-4-hydroxy-3-methoxycyclohexyl)ethyl)-10,21-dimethoxy-6,8,12,14,20,26-hexamethyl-9,10,12,13,14,21,22,23,24,25,26,27,32,33,34,34a-hexadecahydro-3H-23,27-epoxypyrido[2,1-c][1]oxa[4]azacyclohentriacontine-1,5,11,28,29(4H,6H,31H)-pentaone], the “anti-inflammatory effects (Cell Proliferation Dye and phenotypic markers)” value with conventional T cells (100 nM) was “promising anti-inflammatory effects”. Moreover, in the series on conventional T cells (100 nM, conventional T cells), the CCR7 expression entry is given as “increased” and the CD45RO expression result is “decreased”. Besides, in the series with conventional T cells (compared to stimulated CD3 T cells), the “mitochondrial membrane potential (MitoProbe)” value is “reduced”. Further, the “FOXP3+ count” value in the series with naïve CD4+ mouse T cells stood at 45.8. Moreover, the “frequency of Treg cells” value in the series with Treg cells is recorded as “reduce”. In the series on Treg cells (Treg cells), the “expression of CCR7” value is “reduce”, the “expression of CD45RO” value is “reduce”, the “expression of CXCR3” value is reported as “reduce” and the “phosphorylation of 4EBP1” value was “reduce”. In addition, the “phosphorylation of S6” value with Treg cells (Treg cells) is reported as “reduce”. The p70S6 high cells entry with mTOR (following overnight stimulation, therapeutic concentrations (1-200 nM)) is on record as “significantly reduced”.
For `CO[C@H]1C[C@@H]2CC[C@@H](C)[C@@](O)(O2)C(=O)C(=O)N2CCCC[C@H]2C(=O)O[C@H]([C@H](C)C[C@@H]2CC[C@@H](O)[C@H](OC)C2)CC(=O)[C@H](C)/C=C(\C)[C@@H](O)[C@@H](OC)C(=O)[C@H](C)CC/C=C/C=C/C=C/1C` [RAP23, (3S,6R,7E,9R,10R,12R,15E,17E,19E,21S,23S,26R,27R,34aS)-9,27-dihydroxy-3-((R)-1-((1S,3R,4R)-4-hydroxy-3-methoxycyclohexyl)propan-2-yl)-10,21-dimethoxy-6,8,12,20,26-pentamethyl-9,10,12,13,14,21,22,23,24,25,26,27,32,33,34,34a-hexadecahydro-3H-23,27-epoxypyrido[2,1-c][1]oxa[4]azacyclohentriacontine-1,5,11,28,29(4H,6H,31H)-pentaone], in series [3], the “proliferation of CTV-labelled CD8 cells” value is “increased proliferation”. For the same compound, in the series on naïve CD4+ mouse T-cells (1 nM to 1 uM), the “portion of cells possessing a phospho-p70S6K high/CD62L+high phenotype” value is on record as 7-10%. The “generation of memory versus inhibition of proliferation” value in the series on naïve CD4+ mouse T-cells (overall assessment) is “promote potent generation of memory without potently inhibiting proliferation”. Besides, in the series on naïve CD4+ mouse T-cells (relative to all doses of rapamycin (including 1 nM)), the “phospho-p70S6K low/CD62L+high phenotype” value is on record as “reduced”. In addition, the “inhibition of the p70S6 high signal” value in the series with mTOR (even at 1 uM) is “never fully inhibited”.
